Earlier results as cited in patent publication US20220080020A1, “COMPOSITIONS AND METHODS FOR REDUCING THE TRAN[…] […] USING AN ORAL […] SYSTEM” (priority 2020, published 2022).

What was measured:
[1] = children, xylitol chewing gum or oral solution
[2] = aqueous solution
[3] = system: ACE2 receptor; details: prevents covid 19 attachment

| Structure (SMILES) | reduction in the incidence of otitis [1] | solubility (saturated solution) [2] | competition with the ACE2 receptor [3] |
| --- | --- | --- | --- |
| OC[C@@H](O)[C@H](O)[C@@H](O)CO [xylitol] | between a thirty and forty-percent reduction | up to 64.2 grams per 100 ml of solution |  |
| Cc1cc(O)c2c(c1)C(=O)c1cc(O)cc(O)c1C2=O [Emodin] |  |  | compete with the ACE2 receptor |
